From patent EP2951180B1, “2,6,7,8 SUBSTITUTED PURINES AS HDM2 INHIBITORS” (Merck Sharp & Dohme Corp., priority 2013, dated 2014) come the findings set out here.

This test deals with T1, HDM2 (Homo sapiens, UniProt Q00987).
T1 construct: Thioredoxin (N); made in house; host or cells: E. coli strain BL21(DE3)Rosetta
Nature of the test: HDM2 FRET assay (inhibition of binding of FITC labeled p53-pocket peptide to HDM2). The conditions noted are these: for IC50: read-out: FRET IC50. The essentials: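 Final: 0.5 nM His-HDM2, 3 nM FITC peptide, 0.25 nM Tb anti-His Ab; PBS, 0.01% BSA, 0.01% Tween-20; 0.1% DMSO.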

The mark [1] stands for this setting: 0.5 nM HDM2 (residues 17 to 125), 3nM peptide, two hour incubation at room temperature.

Molecules are shown by their SMILES. Like-named read-outs stand apart in the source and are kept apart here.

T1 sequence (Q00987 17-125): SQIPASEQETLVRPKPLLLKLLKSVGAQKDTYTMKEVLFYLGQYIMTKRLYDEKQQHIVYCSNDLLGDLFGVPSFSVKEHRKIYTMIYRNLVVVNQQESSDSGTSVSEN

What is called IC50 is the concentration needed to halve the response being measured. For `C=CCN(c1nc(C(=O)O)nc2nc(N[C@@H](C)c3cccc(F)c3)n(Cc3ccc(C(F)(F)F)cc3)c12)[C@H](C)C1CCC1` [Example 10.28, 6-(Allyl((R)-1-cyclobutylethyl)amino)-8-(((S)-1-(3-fluorophenyl)ethyl)amino)-7-(4-(trifluoromethyl)benzyl)-7H-purine-2-carboxylic acid], the concentration for half-maximal inhibition (IC50) (Table 10) was 0.0222 µM.
Consider `C[C@@H](Nc1nc(-c2noc(=O)[nH]2)nc2nc(C3CCCCC3c3ccccc3)n(C[C@H]3CC[C@H](C)CC3)c12)C1CCC1` (single isomer, unassigned) [Example 21.26], for which the concentration for half-maximal inhibition (IC50) (Table 21) was found to be 0.0216 µM.
As to `C[C@@H](Nc1nc(-c2noc(=O)[nH]2)nc2nc(N(C)Cc3cnn(C)c3)n(C[C@H]3CC[C@H](C)CC3)c12)C1CCC1` [Example 11.71, 3-(6-{[(1R)-1-cyclobutylethyl]amino}-7-[(trans-4-methylcyclohexyl)methyl]-8-{methyl[(1-methyl-1H-pyrazol-4-yl)methyl]amino}-7H-purin-2-yl)-1,2,4-oxadiazol-5(2H)-one], the IC50 (Table 11) was determined as 0.0243 µM.
On the same count and under the same terms, with `C[C@@H](Nc1nc(-c2noc(=O)[nH]2)nc2nc(N3CCCC[C@@H]3c3ccccc3)n(C[C@H]3CC[C@H](C)CC3)c12)C1CCC1` [Example 11.13, 3-(6-{[(1R)-1-cyclobutylethyl]amino}-7-[(trans-4-methylcyclohexyl)methyl]-8-[(2R)-2-phenylpiperidin-1-yl]-7H-purin-2-yl)-1,2,4-oxadiazol-5(4H)-one] the figure was 0.0267 µM.
Consider `C[C@@H](Nc1nc(-c2noc(=O)[nH]2)nc2nc(-c3cc(C(C)(C)O)ccn3)n(C[C@H]3CC[C@H](C)CC3)c12)C1CCC1` [Example 15.23, 3-(6-{[(1R)-1-cyclobutylethyl]amino}-8-[4-(1-hydroxy-1-methylethyl)pyridin-2-yl]-7-[(trans-4-methylcyclohexyl)methyl]-7H-purin-2-yl)-1 ,2,4-oxadiazol-5(4H)-one], for which, under setting [1], the IC50 is 0.00475 µM.
Take `C[C@@H](Nc1nc(-c2noc(=O)[nH]2)nc2nc(C(O)(c3ccccc3)C(F)(F)F)n(C[C@H]3CC[C@H](C)CC3)c12)C1CCC1` (single isomer, unassigned) [Example 22.25]: the IC50 (Table 22) stood at 0.501 µM.
With `CCC1=CCC(Cn2c(-c3cc(C(C)C)ccn3)nc3nc(C(=O)O)nc(N[C@H](C)C4CCC4)c32)CC1` (stereo partly drawn) [Example 18.6, 6-(((R)-1-cyclobutylethyl)amino)-7-((4-ethylcyclohex-3-en-1-yl)methyl)-8-(4-isopropylpyridin-2-yl)-7H-purine-2-carboxylic acid], the IC50 (Table 18) was found to be 0.0159 µM.
Take `C[C@@H](Nc1nc(C(N)=O)nc2nc(N3CCN(S(C)(=O)=O)C[C@H]3c3ccccc3)n(C[C@H]3CC[C@H](C)CC3)c12)C1CCC1` [Example 17.12, 6-{[(1R)-1-cyclobutylethyl]amino}-7-[(trans-4-methylcyclohexyl)methyl]-8-[(2R)-4-(methylsulfonyl)-2-phenylpiperazin-1-yl]-7H-purine-2-carboxamide]: the IC50 (Table 17.2) is 0.0046 µM.
As to `Cc1noc([C@@H]2COCCN2c2nc3nc(-c4n[nH]c(=O)o4)nc(-c4cccc(Cl)c4)c3n2C[C@H]2CC[C@H](C)CC2)n1` [Example 16.121, 5-{6-(3-chlorophenyl)-7-[(trans-4-methylcyclohexyl)methyl]-8-[(3S)-3-(3-methyl-1,2,4-oxadiazol-5-yl)morpholin-4-yl]-7H-purin-2-yl}-1,3,4-oxadiazol-2(3H)-one], the IC50 under setting [1] is 0.00918 µM.
Take `COC1(c2nc3nc(-c4n[nH]c(=O)o4)nc(-c4cncc(Cl)c4)c3n2C[C@H]2CC[C@H](C)CC2)CCCCC1` [Example 23.76, 5-{6-(5-chloropyridin-3-yl)-8-(1-methoxycyclohexyl)-7-[(trans-4-methylcyclohexyl)methyl] -7H-purin-2-yl}-1,3,4-oxadiazol-2(3H)-one]: the IC50 (Table 23) came to 0.0141 µM.
For `C[C@@H](Nc1nc(-c2noc(=O)[nH]2)nc2nc(N3CCOC[C@H]3c3ccccc3)n(C[C@H]3CC[C@H](C)CC3)c12)C(F)(F)F` [Example 11.53, 3-(7-[(trans-4-methylcyclohexyl)methyl]-8-[(3R)-3-phenylmorpholin-4-yl]-6-{[(1R)-2,2,2-trifluoro-1-methylethyl]amino}-7H-purin-2-yl)-1,2,4-oxadiazol-5(4H)-one], the IC50 (Table 11) was found to be 0.00468 µM.
Consider `Cc1cccc(-c2nc3nc(C(=O)O)nc(N[C@H](CCCO)C4CCC4)c3n2Cc2ccc(C(F)(F)F)cc2)c1` [Example 7.2, 6-{[(1R)-1-cyclobutyl-4-hydroxybutyl]amino}-8-(3-methylphenyl)-7-[4-(trifluoromethyl)benzyl]-7H-purine-2-carboxylic acid], for which, for the setting “Table 7”, the IC50 came out at 0.041 µM.
As to `C[C@@H](Nc1nc(-c2noc(=O)[nH]2)nc2nc(N3CCCCC3CF)n(Cc3ccc(C(F)(F)F)cc3)c12)C1CCC1` (stereo partly drawn) [Example 9.90, 3-(6-{[(1R)-1-cyclobutylethyl]amino}-8-[2-(fluoromethyl)piperidin-1-yl]-7-[4-(trifluoromethyl)benzyl]-7H-purin-2-yl)-1,2,4-oxadiazol-5(4H)-one], the IC50 (Table 9) stood at 0.0121 µM.
Take `C[C@@H](Nc1nc(C(=O)O)nc2nc(N3CCCC3c3ccccc3)n(Cc3ccc(C(F)(F)F)cc3)c12)C1CCC1` (single isomer, unassigned) [Example 9.64]: under “Table 9”, the IC50 was found to be 0.0102 µM.
For `CC(C)c1ccnc(-c2nc3nc(C(=O)O)nc(N[C@H](C)C4CCC4)c3n2C[C@H]2CC[C@H](C)CC2)c1` [Example 15.15, 6-{[(1R)-1-cyclobutylethyl]amino}-7-[(trans-4-methylcyclohexyl)methyl]-8-[4-(1-methylethyl)pyridin-2-yl]-7H-purine-2-carboxylic acid], the IC50 under setting [1] turned out to be 0.00255 µM.
With `Cc1cccc(-c2nc3nc(C(=O)O)nc(N[C@H](C)C4CCC4)c3n2Cc2ccc(Br)cc2)c1` [Example 6.7, 7-(4-bromobenzyl)-6-{[(1R)-1-cyclobutylethyl]amino}-8-(3-methylphenyl)-7H-purine-2-carboxylic acid], for the setting “Table 6”, the IC50 came out at 0.0757 µM.
On to `C[C@@H](Nc1nc(C(=O)O)nc2nc(C3COCC3c3ccccc3)n(Cc3ccc(C(F)(F)F)cc3)c12)C1CCC1` (single isomer, unassigned) [Example 21.7], for which the IC50 (Table 21) amounted to 0.0287 µM.
For the compound `Cc1cccc(-c2nc3ncnc(N4CCC[C@@H]4C4CCC4)c3n2Cc2ccc(C(F)(F)F)cc2)c1` [Example 7.9, 6-[(2R)-2-cyclobutylpyrrolidin-1-yl]-8-(3-methylphenyl)-7-[4-(trifluoromethyl)benzyl]-7H-purine], the IC50 (Table 7) came to 4.48 µM.
With `C[C@@H](Nc1nc(NC(C)(C)C(=O)O)nc2nc(N3CCOC[C@H]3c3ccccc3)n(C[C@H]3CC[C@H](C)CC3)c12)C1CCC1` [Example 13.5, N-(6-{[(1R)-1-cyclobutylethyl]amino}-7-[(trans-4-methylcyclohexyl)methyl]-8-[(3R)-3-phenylmorpholin-4-yl]-7H-purin-2-yl)-2-methylalanine], under setting [1], the IC50 stood at 0.26 µM.
`Cc1cccc(-c2nc3nc(C(=O)O)nc(N[C@H](C)c4ccc(Cl)cc4)c3n2Cc2ccc(C(F)(F)F)cc2)c1` [Example 6.44, 6-{[(1R)-1-(4-chlorophenyl)ethyl]amino}-8-(3-methylphenyl)-7-[4-(trifluoromethyl)benzyl]-7H-purine-2-carboxylic acid]: the IC50 (Table 6) stood at 0.372 µM.
As for `C[C@@H](Nc1nc(-c2noc(=O)[nH]2)nc2nc(N(C)Cc3noc(C4CC4)n3)n(C[C@H]3CC[C@H](C)CC3)c12)C1CCC1` [Example 11.75, 3-(6-{[(1R)-1-cyclobutylethyl]amino}-8-{[(5-cyclopropyl-1,2,4-oxadiazol-3-yl)methyl](methyl)amino}-7-[(trans-4-methylcyclohexyl)methyl]-7H-purin-2-yl)-1,2,4-oxadiazol-5(2H)-one], under “Table 11”, the IC50 came to 0.00958 µM.
`CC(C)c1ccnc(-c2nc3nc(S(C)(=O)=O)nc(N[C@H](C)C4CCC4)c3n2C[C@H]2CC[C@H](C)CC2)c1` [Example 14.4, N-[(1R)-1-cyclobutylethyl]-7-[(trans-4-methylcyclohexyl)methyl]-8-[4-(1-methylethyl)pyridin-2-yl]-2-(methylsulfonyl)-7H-purin-6-amine]: the IC50 under setting [1] was found to be 0.0724 µM.
In the case of `C[C@H]1CC[C@H](Cn2c(N3CCOC[C@H]3c3ccccc3)nc3nc(-c4noc(=O)[nH]4)nc(-c4ccnc(Cl)c4)c32)CC1` [Example 16.110, 3-{6-(2-chloropyridin-4-yl)-7-[(trans-4-methylcyclohexyl)methyl]-8-[(3R)-3-phenylmorpholin-4-yl]-7H-purin-2-yl}-1,2,4-oxadiazol-5(4H)-one], the IC50 under setting [1] turned out to be 0.00114 µM.
Regarding `C[C@H](CO)Nc1nc2nc(-c3n[nH]c(=O)o3)nc(-c3cccc(Cl)c3)c2n1C[C@H]1CC[C@H](C)CC1` [Example 16.46, 5-{6-(3-chlorophenyl)-8-{[(1R)-2-hydroxy-1-methylethyl]amino}-7-[(trans-4-methylcyclohexyl)methyl]-7H-purin-2-yl}-1,3,4-oxadiazol-2(3H)-one], under setting [1], the IC50 worked out at 0.071 µM.
On to `Cc1cccc(-c2nc3nc(C(=O)O)nc(N(C)C4CCCC4)c3n2Cc2ccc(C(F)(F)F)cc2)c1` [Example 6.65, 6-[cyclopentyl(methyl)amino]-8-(3-methylphenyl)-7-[4-(trifluoromethyl)benzyl]-7H-purine-2-carboxylic acid], for which the inhibition at 1 µM (read-out: inh. at 1000 nM (FRET)) is 35%.
Regarding `C[C@@H](Nc1nc(C(=O)O)nc2nc(N3CCCC[C@H]3c3ccccc3)n(C[C@H]3CC[C@H](C)CC3)c12)C1CCC1` [Example 11.14, 6-{[(1R)-1-cyclobutylethyl]amino}-7-[(trans-4-methylcyclohexyl)methyl]-8-[(2S)-2-phenylpiperidin-1-yl]-7H-purine-2-carboxylic acid], the IC50 (Table 11) was determined as 0.000381 µM.
